Experimental data reported in patent US20120219536A1, “PURINE-TARGETED DIAGNOSIS AND THERAPY OF WOUNDS” (Queensland University of Technology, priority 2009, published 2012).
Read-outs that look alike come from different tables or passages of the source.

Experiments:
mice = details: cited from earlier work
xanthine oxidase = biological target: T1, xanthine oxidase (Homo sapiens, UniProt P47989); test: Xanthine oxidase activity and inhibition in pooled chronic wound fluid (CWF), RP-HPLC; format: biochemical; details: pooled CWF retentate, 10 μmol/L allopurinol, 37° C., 2.5 hr
T1 construct: from tissue; host or cells: pooled chronic wound fluid (CWF), retentate of 3K ultrafiltration
Experimental: Additionally, samples were treated with allopurinol, a specific XO inhibitor, and the production of the metabolite oxypurinol determined at A254. Firstly, CWF was concentrated by centrifugation using nanosep 3K omega filters (PALL) at 10,000 g for 10 min at 4° C. The retentate was resuspended with 10 mM Tris-HCl buffer, pH 8.0 containing either 10 μmol/L of xanthine or allopurinol, then incubated at 37° C. for 2.5 hr in the ultrafiltration unit. After incubation, the reaction mixture was de-proteinised as per the manufacturer's instructions and the resulting filtrates analysed using reverse phase HPLC as previously outlined.
In further support of this finding, XO enzyme inhibition was assayed using a potent XO inhibitor, allopurinol. Allopurinol is rapidly metabolised by XO to generate the active metabolite, oxypurinol, which itself is an inhibitor of XO. […] Western blotting confirmed the presence of the enzyme in wound fluid (data not shown).

T1 sequence (P47989 whole entry): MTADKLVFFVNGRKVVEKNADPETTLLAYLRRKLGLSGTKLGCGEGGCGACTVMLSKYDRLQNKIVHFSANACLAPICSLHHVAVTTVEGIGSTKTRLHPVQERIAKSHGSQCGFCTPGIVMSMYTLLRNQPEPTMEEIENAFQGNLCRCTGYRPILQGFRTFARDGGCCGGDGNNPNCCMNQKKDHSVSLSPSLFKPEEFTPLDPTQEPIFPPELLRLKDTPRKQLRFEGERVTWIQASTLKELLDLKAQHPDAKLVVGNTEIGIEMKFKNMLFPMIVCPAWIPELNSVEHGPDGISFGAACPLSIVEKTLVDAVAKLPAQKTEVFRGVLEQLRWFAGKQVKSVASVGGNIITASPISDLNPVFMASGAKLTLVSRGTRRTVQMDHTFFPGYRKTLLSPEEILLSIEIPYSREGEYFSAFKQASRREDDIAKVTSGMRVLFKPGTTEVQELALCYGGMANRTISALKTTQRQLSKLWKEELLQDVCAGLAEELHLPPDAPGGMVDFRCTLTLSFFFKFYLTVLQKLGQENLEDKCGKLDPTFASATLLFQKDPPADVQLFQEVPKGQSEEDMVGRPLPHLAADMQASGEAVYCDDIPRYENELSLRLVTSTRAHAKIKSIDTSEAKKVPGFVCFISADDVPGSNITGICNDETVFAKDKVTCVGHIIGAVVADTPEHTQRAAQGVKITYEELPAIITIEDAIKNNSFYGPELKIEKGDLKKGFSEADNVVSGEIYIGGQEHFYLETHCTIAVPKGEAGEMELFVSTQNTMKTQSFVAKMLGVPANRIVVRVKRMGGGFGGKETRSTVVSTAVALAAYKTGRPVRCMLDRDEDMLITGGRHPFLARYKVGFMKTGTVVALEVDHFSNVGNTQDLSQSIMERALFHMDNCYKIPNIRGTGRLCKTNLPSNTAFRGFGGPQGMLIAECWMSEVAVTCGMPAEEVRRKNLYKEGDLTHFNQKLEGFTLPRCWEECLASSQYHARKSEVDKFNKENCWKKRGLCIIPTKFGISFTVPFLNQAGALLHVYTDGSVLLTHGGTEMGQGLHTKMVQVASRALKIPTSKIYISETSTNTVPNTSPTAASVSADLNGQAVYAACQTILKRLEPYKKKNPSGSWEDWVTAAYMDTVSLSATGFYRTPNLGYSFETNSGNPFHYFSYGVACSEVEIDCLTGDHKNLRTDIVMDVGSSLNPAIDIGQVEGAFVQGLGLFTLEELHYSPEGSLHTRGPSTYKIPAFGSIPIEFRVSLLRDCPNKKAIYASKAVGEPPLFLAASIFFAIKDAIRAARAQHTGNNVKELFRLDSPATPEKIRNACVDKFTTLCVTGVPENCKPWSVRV

Substance: 1,4-dihydropyrazolo[4,3-d]pyrimidin-7-one [Allopurinol]
- 50% lethal dose (LD50) (mice; given intraperitoneally): 160 mg/kg
- 50% lethal dose (LD50) (mice; given orally): 700 mg/kg
- production of the metabolite oxypurinol by XO (xanthine oxidase; HPLC at A254): a peak consistent with the retention time of oxypurinol standard was detected
- XO enzyme inhibition: production of uric acid (xanthine oxidase; HPLC at A280): did not reveal a peak corresponding to uric acid
